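Step 1: Grow cells in 96-well plates. Step 2: Expose to compound for 48 hours at 5 concentrations. Step 3: Interpolate endpoints linearly; if unreached, use highest concentration. The concentration for 50% growth inhibition is given as GI50.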 The source made the active and inactive calls. Cut-off read from the data, not from the text of the source: active = GI50 up to about 1.1 µM and inactive = higher.
How the values were obtained:
Assay in all cases: growth of human tumour cells (NCI), 48 h
SK-MEL-28 = tested on: SK-MEL-28
RPMI-8226 = tested on: RPMI-8226
SK-MEL-2 = tested on: SK-MEL-2
NCI-H23 = tested on: NCI-H23
RXF 393 = tested on: RXF 393
UACC-257 = tested on: UACC-257
HL-60 = tested on: HL-60
LXFL 529 = tested on: LXFL 529
CAKI-1 = tested on: CAKI-1
EKVX = tested on: EKVX
OVCAR-3 = tested on: OVCAR-3
HT-29 = tested on: HT-29
ACHN = tested on: ACHN
SK-MEL-5 = tested on: SK-MEL-5
SF-295 = tested on: SF-295
786-0 = tested on: 786-0
CCRF-CEM = tested on: CCRF-CEM

Measured: GI50

C=C(C)C1CC2C(C)=C(OC(C)=O)C1n1c(=O)c3cc4ccccc4cc3c(=O)n12 (centres undefined)
inactive: SK-MEL-28 > 100 µM | RPMI-8226 36 µM | SK-MEL-2 > 100 µM | NCI-H23 50.1 µM | RXF 393 24.2 µM | UACC-257 > 100 µM | HL-60 1.41 µM | LXFL 529 69.7 µM | CAKI-1 62.2 µM | EKVX 64.1 µM | OVCAR-3 46.9 µM | HT-29 > 80.9 µM | ACHN > 82.8 µM | SK-MEL-5 87.3 µM | SF-295 > 71.6 µM | 786-0 > 95.5 µM

COc1cc(/C=C/C(=N\NC(=O)c2ccccc2)c2sc(Nc3ccc(Cl)c(Cl)c3)nc2C)ccc1O
inactive: SK-MEL-28 40.6 µM | CCRF-CEM 27.9 µM | SK-MEL-2 26.2 µM | NCI-H23 25.7 µM | RXF 393 39.7 µM | UACC-257 29.6 µM | HL-60 16.1 µM | LXFL 529 31.6 µM | CAKI-1 36.4 µM | EKVX 29.6 µM | OVCAR-3 30.3 µM | HT-29 28.9 µM | ACHN 26.8 µM | SF-295 33.1 µM | 786-0 41.2 µM

O=[N+]([O-])c1cc(Cl)ccc1S(=O)(=O)c1ccc(Cl)cc1[N+](=O)[O-]
inactive: SK-MEL-28 18.1 µM | CCRF-CEM 24.1 µM | RPMI-8226 29.6 µM | SK-MEL-2 18 µM | NCI-H23 15.2 µM | RXF 393 15.1 µM | UACC-257 13.5 µM | HL-60 19.9 µM | LXFL 529 14.1 µM | CAKI-1 19.7 µM | OVCAR-3 17.3 µM | HT-29 16.8 µM | ACHN 16.1 µM | SK-MEL-5 14.6 µM | SF-295 15.1 µM | 786-0 15.5 µM

O=C(CCC(=O)Nc1ccc(Cl)c(Cl)c1)CC(=O)c1ccc(F)cc1
inactive: SK-MEL-28 > 100 µM | CCRF-CEM > 100 µM | NCI-H23 > 100 µM | RXF 393 > 100 µM | UACC-257 > 100 µM | HL-60 > 100 µM | LXFL 529 > 100 µM | CAKI-1 > 100 µM | EKVX > 100 µM | OVCAR-3 > 100 µM | HT-29 > 100 µM | ACHN > 100 µM | SK-MEL-5 > 100 µM | SF-295 > 100 µM | 786-0 > 100 µM

COc1cc2c(cc1O)CC13CCC(=O)N1CCc1cc(OC)c(O)c-2c13 (centres undefined)
inactive: SK-MEL-28 > 68.1 µM | CCRF-CEM > 68.1 µM | RPMI-8226 > 68.1 µM | NCI-H23 > 68.1 µM | RXF 393 > 68.1 µM | UACC-257 > 68.1 µM | HL-60 > 68.1 µM | LXFL 529 > 68.1 µM | CAKI-1 > 68.1 µM | EKVX > 68.1 µM | OVCAR-3 > 68.1 µM | HT-29 > 68.1 µM | ACHN > 68.1 µM | SK-MEL-5 > 68.1 µM | SF-295 > 68.1 µM | 786-0 > 68.1 µM

O=C1CCC(O)=C1O
inactive: SK-MEL-28 > 100 µM | CCRF-CEM > 100 µM | RPMI-8226 > 100 µM | SK-MEL-2 > 100 µM | NCI-H23 > 100 µM | RXF 393 > 100 µM | HL-60 > 100 µM | LXFL 529 > 100 µM | CAKI-1 > 100 µM | EKVX > 100 µM | OVCAR-3 > 100 µM | HT-29 > 100 µM | ACHN > 100 µM | SK-MEL-5 > 100 µM | SF-295 > 100 µM | 786-0 > 100 µM

NCCOCCOCC(=O)O
inactive: SK-MEL-28 > 100 µM | RPMI-8226 > 100 µM | SK-MEL-2 > 100 µM | NCI-H23 > 100 µM | RXF 393 > 100 µM | UACC-257 > 100 µM | LXFL 529 > 100 µM | CAKI-1 > 100 µM | EKVX > 100 µM | OVCAR-3 > 100 µM | HT-29 > 100 µM | ACHN > 100 µM | SK-MEL-5 > 100 µM | SF-295 > 100 µM | 786-0 > 100 µM

From ChEMBL document CHEMBL1201862, “PubChem BioAssay data set” (2004)
